Reference: patent US11214803B2, “Modulators of YAP1 expression” (Ionis Pharmaceuticals, Inc., priority 2019, dated 2022)
Strand notation (5' to 3'): a small letter for the sugar, then the base; units joined by * are phosphorothioate-linked, units joined directly phosphodiester-linked; [ ] holds rarer units or linkages, { } end groups; capitals alone tell only the bases. k = constrained ethyl (cEt); [5mC] = 5-methylcytosine; d = 2'-deoxy (DNA)

Test system: Yap1 mRNA
Assay: Dose-dependent inhibition of human Yap1 in A-431 cells (Example 7, 10,000 cells per well, RTS36584)
Format: cell-based
Conditions: free uptake
Outline: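 A-431 cells at 10,000 per well received modified oligonucleotides by free uptake at several doses. After about 48 hours, Yap1 mRNA was quantified with primer-probe set RTS36584, normalized to RIBOGREEN total RNA and expressed as % untreated control. IC50 came from linear regression on a log/linear plot.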

[1] = 15.6 nM, A-431 cells, 10,000 cells per well, approximately 48 hours
[2] = 62.5 nM, A-431 cells, 10,000 cells per well, approximately 48 hours
[3] = 4000.00 nM, A-431 cells, 10,000 cells per well, approximately 48 hours
[4] = A-431 cells, approximately 48 hours, linear regression on log/linear plot
[5] = Table 59, 15.6 nM, A-431 cells 10,000 cells per well, 48 hours
[6] = Table 59, 62.5 nM, A-431 cells 10,000 cells per well, 48 hours
[7] = Table 59, 4000.00 nM, A-431 cells 10,000 cells per well, 48 hours
[8] = Table 59, A-431 cells 10,000 cells per well
[9] = Table 60, 15.6 nM, A-431 cells 10,000 cells per well, 48 hours
[10] = Table 60, 62.5 nM, A-431 cells 10,000 cells per well, 48 hours
[11] = Table 60, 4000.00 nM, A-431 cells 10,000 cells per well, 48 hours
[12] = Table 60, A-431 cells 10,000 cells per well
[13] = Table 61, 15.6 nM, A-431 cells 10,000 cells per well, 48 hours
[14] = Table 61, 62.5 nM, A-431 cells 10,000 cells per well, 48 hours
[15] = Table 61, 4000.00 nM, A-431 cells 10,000 cells per well, 48 hours
[16] = Table 61, A-431 cells 10,000 cells per well

958585 (k[5mC]*kT*k[5mC]*dT*dA*dT*d[5mC]*dA*dA*dG*dG*dT*d[5mC]*k[5mC]*k[5mC]*k[5mC]; antisense) [compound 958585]
Yap1 mRNA, % UTC [1]: 95 % UTC | Yap1 mRNA, % UTC [2]: 71 % UTC | Yap1 mRNA, % UTC [3]: 17 % UTC | IC50 [4]: 200 nM

958562 (k[5mC]*kA*kT*dT*dG*dA*dA*dA*dG*dA*d[5mC]*d[5mC]*d[5mC]*kT*kT*kA; antisense) [compound 958562]
Yap1 mRNA, % UTC [5]: 105 % UTC | Yap1 mRNA, % UTC [6]: 95 % UTC | Yap1 mRNA, % UTC [7]: 28 % UTC | IC50 [8]: 400 nM

958623 (kT*kT*kG*dA*dT*dA*dT*dT*d[5mC]*d[5mC]*dG*d[5mC]*dA*kT*kT*kG; antisense) [compound 958623]
Yap1 mRNA, % UTC [5]: 100 % UTC | Yap1 mRNA, % UTC [6]: 62 % UTC | Yap1 mRNA, % UTC [7]: 10 % UTC | IC50 [8]: 100 nM

958476 (kT*kT*k[5mC]*d[5mC]*dG*dG*dT*dG*d[5mC]*dA*dT*dG*dT*kG*kT*k[5mC]; antisense) [compound 958476]
Yap1 mRNA, % UTC (Table 56, 15.6 nM, A-431 cells 10,000 cells per well, 48 hours): 71 % UTC | Yap1 mRNA, % UTC (Table 56, 62.5 nM, A-431 cells 10,000 cells per well, 48 hours): 30 % UTC | Yap1 mRNA, % UTC (Table 56, 4000.00 nM, A-431 cells 10,000 cells per well, 48 hours): 6 % UTC | IC50 (Table 56, A-431 cells 10,000 cells per well): 30 nM

958598 (k[5mC]*k[5mC]*k[5mC]*dA*dA*dT*dG*d[5mC]*dT*dA*d[5mC]*d[5mC]*d[5mC]*kA*kA*kT; antisense) [compound 958598]
Yap1 mRNA, % UTC [9]: 93 % UTC | Yap1 mRNA, % UTC [10]: 58 % UTC | Yap1 mRNA, % UTC [11]: 19 % UTC | IC50 [12]: 100 nM

958507 (kG*kA*kG*d[5mC]*dA*dG*dA*dT*dA*dA*dT*d[5mC]*dG*kA*kG*kA; antisense) [compound 958507]
Yap1 mRNA, % UTC [5]: 93 % UTC | Yap1 mRNA, % UTC [6]: 69 % UTC | Yap1 mRNA, % UTC [7]: 19 % UTC | IC50 [8]: 200 nM

958563 (kA*kG*k[5mC]*dT*dT*dT*dT*dG*d[5mC]*d[5mC]*dA*dG*dG*kA*kG*kA; antisense) [compound 958563]
Yap1 mRNA, % UTC [5]: 94 % UTC | Yap1 mRNA, % UTC [6]: 54 % UTC | Yap1 mRNA, % UTC [7]: 10 % UTC | IC50 [8]: 100 nM

958474 (kG*kT*kG*dT*d[5mC]*dT*d[5mC]*d[5mC]*dT*dT*dA*dG*dA*kT*k[5mC]*k[5mC]; antisense) [compound 958474]
Yap1 mRNA, % UTC [13]: 63 % UTC | Yap1 mRNA, % UTC [14]: 37 % UTC | Yap1 mRNA, % UTC [15]: 11 % UTC | IC50 [16]: 30 nM

958538 (kA*kT*k[5mC]*d[5mC]*dA*dG*dG*dG*dT*d[5mC]*dA*dA*dT*kT*kT*kT; antisense) [compound 958538]
Yap1 mRNA, % UTC [9]: 101 % UTC | Yap1 mRNA, % UTC [10]: 77 % UTC | Yap1 mRNA, % UTC [11]: 30 % UTC | IC50 [12]: 300 nM

958644 (kA*kT*kG*dA*dT*d[5mC]*dA*dA*dA*d[5mC]*d[5mC]*dT*dT*kT*kT*k[5mC]; antisense) [compound 958644]
Yap1 mRNA, % UTC [13]: 97 % UTC | Yap1 mRNA, % UTC [14]: 85 % UTC | Yap1 mRNA, % UTC [15]: 24 % UTC | IC50 [16]: 300 nM

958742 (kA*kG*k[5mC]*dA*dA*dT*dA*dT*dG*dG*dT*dA*dT*kT*kA*kG; antisense) [compound 958742]
Yap1 mRNA, % UTC (Table 58, 15.6 nM, A-431 cells 10,000 cells per well, 48 hours): 105 % UTC | Yap1 mRNA, % UTC (Table 58, 62.5 nM, A-431 cells 10,000 cells per well, 48 hours): 70 % UTC | Yap1 mRNA, % UTC (Table 58, 4000.00 nM, A-431 cells 10,000 cells per well, 48 hours): 20 % UTC | IC50 (Table 58, A-431 cells 10,000 cells per well): 200 nM

958490 (kG*kT*kG*dA*d[5mC]*dA*dT*dG*dA*dA*dG*d[5mC]*dA*kT*k[5mC]*kT; antisense) [compound 958490]
Yap1 mRNA, % UTC [1]: 81 % UTC | Yap1 mRNA, % UTC [2]: 54 % UTC | Yap1 mRNA, % UTC [3]: 13 % UTC | IC50 [4]: 100 nM

958543 (kA*k[5mC]*k[5mC]*dT*dT*dA*dT*dA*dG*dT*dA*dT*dT*k[5mC]*kT*kA; antisense) [compound 958543]
Yap1 mRNA, % UTC [9]: 84 % UTC | Yap1 mRNA, % UTC [10]: 63 % UTC | Yap1 mRNA, % UTC [11]: 18 % UTC | IC50 [12]: 100 nM

958753 (kT*kG*kT*dA*dT*dA*dT*dG*d[5mC]*d[5mC]*dG*dT*dT*k[5mC]*k[5mC]*k[5mC]; antisense) [compound 958753]
Yap1 mRNA, % UTC [9]: 72 % UTC | Yap1 mRNA, % UTC [10]: 48 % UTC | Yap1 mRNA, % UTC [11]: 11 % UTC | IC50 [12]: 100 nM

958731 (kG*k[5mC]*kT*d[5mC]*dT*dG*dT*d[5mC]*dA*dG*dT*dT*dA*kT*k[5mC]*k[5mC]; antisense) [compound 958731]
Yap1 mRNA, % UTC (Table 57, 15.6 nM, A-431 cells 10,000 cells per well, 48 hours): 85 % UTC | Yap1 mRNA, % UTC (Table 57, 62.5 nM, A-431 cells 10,000 cells per well, 48 hours): 64 % UTC | Yap1 mRNA, % UTC (Table 57, 4000.00 nM, A-431 cells 10,000 cells per well, 48 hours): 19 % UTC | IC50 (Table 57, A-431 cells 10,000 cells per well): 100 nM
